# What was measured:
# normal mice [1] = test: Food intake of mice after single intraperitoneal injection; type: in vivo, mouse
# Protocol: (§1) Mice were intraperitoneally injected with DMSO or HLY72 (dissolved in DMSO) 25 μL within 2 hours before turning off the lamp. During the intragastric experiment, the high concentration of HLY72 dissolved in DMSO was dissolved in 10% cyclodextrin, and the total volume was 100 μL Volume by gavage, so that the final concentration of DMSO was less than 10%. The diet was weighed at the 3rd hour, the 6th hour, the 12th hour, and the 24th hour respectively after the lights out. The corresponding mouse body weight was also weighed at the same time before the daily administration. The fat content of mice was measured with the magnetic resonance fat content measuring instrument of the animal platform in SIBCB.
# The next question we are very concerned about is whether HLY78 has similar functions to NUCB2 protein in mice. Up to now, the most classic function reported for NUCB2 protein is to reduce the food intake of mice at night. Therefore, the experiment was designed: 20 mg/kg of HLY78 was injected intraperitoneally within two hours before turning off the lights at night, and then the food intake of the mice was measured at different time points (0-3 h, 0-6 h, 0-12 h, 0-24 h). […] During the three days of the adaptive injection period before HLY78 injection, both groups of mice were injected with DMSO. On the day of injection of HLY78 and the two days before the injection of DMSO, the body weight of the two groups of mice is also the same (FIG. 2b).
# Next, two small molecules HLY72 and HLY103 were selected to perform functional experiments on the food intake in mice.
# [2] = tested on: high-fat-induced obese mice; test: Weight loss in high-fat-induced obese mice, periodic intermittent administration; type: in vivo, mouse; conditions: 20 mg/kg
# Source text: All animal experiments were approved by the Animal Management Committee of SIBCB. C57BL/6 mice were purchased from Lingchang company (normal mice and high-fat diet-induced obese mice), C57/BLJ6 (NUCB2 gene knockout mice for breeding and background purification) were purchased from Lingchang company, OB/OB mice were purchased from Slack company. A high-fat diet (45% kcal, D12451) for inducing obese mice was purchased from Research Diets. Starting from the sixth week, it was fed with high-fat diet for 14-25 weeks. The rest of the mice used normal diet (13.5% kcal). The mice were housed in the SPF grade animal house of SIBCB. The lights were turned off for 12 hours (19: 00-07: 00), and the lights were turned on for 12 hours (07: 00-19: 00).
# as §1
# According to the previous results, it is considered that HLY72 should not be used continuously for a long time. In view of the fact that many mechanisms of NUCB2 functioning are still unclear, the simplest intermittent drug administration method was selected, that is, the drug was administered for 3 days, stopped for 4 days, one dosing cycle per week, and repeated for 3 courses (FIG. 10a).
# In the high-fat-induced obese mouse model, three days after the first injection of HLY72, the body weight of the mice is decreased from 33.56±0.63 g to 31.61±0.74 g, and three days after the second administration, the body weight of mice is decreased from 31.23±0.57 g to 29.36±0.58 g, three days after the third administration, the body weight of mice is decreased from 29.39±0.51 g to 27.80±0.62 g, at the end of 21 days after 3 cycles, the overall weight of the mice is decreased from 33.56±0.63 g to 27.65±0.54 g (FIG. 10b). The whole process corresponds to 16.88%±0.51% of the total weight loss (FIG. 10c).
# normal mice [3] = test: Body weight and daily food intake of normal mice under repeated dosing; type: in vivo, mouse; conditions: for body weight after treatment / daily food intake compared with the control group / reduction in total body weight / body weight before treatment: normal mice; for body weight before treatment: start
# Protocol: as §1
# After screening better small-molecule compound and probably determining its key groups, whether HLY72 has a weight-loss effect has become the most wanted result immediately. For this problem, we directly used normal mice intraperitoneally injected with HLY72 for 5 consecutive days.
# In order to further investigate whether the administration of HLY72 by oral gavage also has a weight-loss effect, and because of the convenience of oral administration, many drugs are taken orally. We have also considered one step more for future applications, so that the administration of oral gavage was used to see the effect of HLY72 on the body weight of normal mice. The same was 20 mg/kg HLY72 intragastric treatment for 5 days.
# After confirming that HLY72 can indeed reduce the weight of mice, we examine two more questions: (1) Whether HLY72's weight-reducing effect is dose-dependent; (2) Whether HLY72-like molecule HLY103 not binding to NUCB2 has a weight-reducing effect. […] We also do the statistics on the daily food intake of the mice in these three days, which is consistent with the conclusion of the short-term statistics in the previous day.
# Water solubility = type: physicochemical
# Wnt signal = test: TOPFlash reporter gene activity test in HEK293T cells; type: cell-based
# Protocol: The HEK293T cells used for the measurement of reporter gene activity were plated at 20 hours before transfection and cultured to about 50% coverage for the transfection. The transfection method was as described above. For HEK293T cells, transfection was performed according to 20 ng TOPFlash, 20 ng GFP and 460 ng lacZ per well, and Wnt3a or Nesfatin-1/NUCB2 protein was added at 18 hours after transfection to stimulate for 6-8 hours, and the cell was lysed with Boehringer Mannheim Luciferase Assay Kit (200 μl/well) for 15 minutes, 50 μl lysate was added in the fluorometer BIO-TEK Synergy2 (Gene Company Limited) to measure the GFP fluorescence intensity in the cell lysate as an internal standard, and then 20 μl luciferase substrate (Roche) was added for the reaction, the luciferase activity was detected in the chemiluminescence channel, and finally the GFP reading was used as an internal standard for homogenization.
# We focus on the three small molecules HLY72, HLY103, and HSS49A (FIG. 3a). […] So that the first biochemical experiment design is: whether these three small molecules can compete for the binding of HLY179 to NUCB2 protein.
# [4] = intraperitoneal 20 mg/kg, 5 consecutive days
smiles,measurement,setting,value
C=Cc1cccc2c1N(C)Cc1cc3c(cc1-2)OCO3 [HLY72],food intake of mice,normal mice [1]; 7.5 mg/kg,no significant effect
same,food intake of mice,normal mice [1]; 15 mg/kg,significant gradient effect
same,food intake of mice,normal mice [1]; 30 mg/kg,significant gradient effect
same,average daily food intake in the three administration periods compared with the DMSO group,[2],significant decrease
same,overall weight at the end of 21 days after 3 cycles,[2]; 3 cycles,27.65 ± 0.54 g
same,body weight before the first administration,"[2]; 3 days on / 4 days off, start",33.56 ± 0.63 g
same,body weight three days after the first injection,[2]; course 1,31.61 ± 0.74 g
same,body weight before the second administration,[2]; course 2,31.23 ± 0.57 g
same,body weight three days after the second administration,[2]; course 2,29.36 ± 0.58 g
same,body weight before the third administration,[2]; course 3,29.39 ± 0.51 g
same,body weight three days after the third administration,[2]; course 3,27.80 ± 0.62 g
same,total weight loss,"[2]; whole process, 21 days, 3 cycles",16.88%±0.51%
same,effect on body weight / weight loss,"normal mice [3]; intraperitoneal, 3 consecutive days, HLY72 10 and 20 mg/kg, HLY103 20 mg/kg",concentration gradient
same,body weight after treatment,normal mice [3]; [4],23.37 ± 0.36 g
same,daily food intake compared with the control group,normal mice [3]; [4],significantly reduced
same,reduction in total body weight,normal mice [3]; [4],9.21%±0.74%
same,body weight before treatment,normal mice [3]; intraperitoneal 20 mg/kg,25.73 ± 0.29 g
same,body weight after treatment,"normal mice [3]; oral gavage 20 mg/kg, 5 days",23.14 ± 0.45 g
same,daily food intake compared with the control group,"normal mice [3]; oral gavage 20 mg/kg, 5 days",decreased significantly
same,reduction in total body weight,"normal mice [3]; oral gavage 20 mg/kg, 5 days",8.43%±0.81%
same,body weight before treatment,normal mice [3]; oral gavage 20 mg/kg,25.26 ± 0.37 g
same,water solubility,Water solubility,very poor
same,activity of Wnt signal activation,Wnt signal,none of them have the activity of Wnt signal activation

# Source: US20200385396A1, “Compond for treatment or prevention of obesity or diseases related to obesity, and application thereof” (SHANGHAI INSTITUTES FOR BIOLOGICAL SCIENCES, CHINESE …, priority 2017, published 2020)
